Biological target: SARS-CoV-2 3CL-protease (Severe acute respiratory syndrome coronavirus 2, UniProt P0DTD1)
Assay: SARS-CoV-2 3C-Like (3CL) Protease Fluorescence Assay (FRET)
Assay type: biochemical
Conditions: SARS-CoV-2 3CL-protease 10 nM, 30 min preincubation at RT, substrate 40 μM

SMILES | IC50
CC(C)C[C@@H](C(=O)N1C[C@]2(C[C@H]1C#N)C(=O)Nc1ccccc12)N(C)C(=O)c1cccc(-c2ccc(C#N)cc2)c1 [Example 265] | 0.1 to 1 µM
CC(C)C[C@@H](C(=O)N1C[C@]2(C[C@H]1C#N)C(=O)Nc1ccccc12)N(C)C(=O)c1cccc(-c2cccc(Cl)c2)c1 [Example 266] | 0.1 to 1 µM
CC(C)C[C@@H](C(=O)N1C[C@]2(C[C@H]1C#N)C(=O)Nc1ccccc12)N(C)C(=O)c1cn(-c2ccccn2)nn1 [Example 267] | < 0.1 µM
CC(C)C[C@@H](C(=O)N1C[C@]2(C[C@H]1C#N)C(=O)Nc1ccccc12)N(C)C(=O)c1cnc2c(C(F)(F)F)cccc2c1 [Example 268] | 0.1 to 1 µM
CC(C)C[C@@H](C(=O)N1C[C@]2(C[C@H]1C#N)C(=O)Nc1ccccc12)N(C)C(=O)c1nc2c(F)cc(F)cc2[nH]1 [Example 269] | < 0.1 µM
CC(C)C[C@@H](C(=O)N1C[C@]2(C[C@H]1C#N)C(=O)Nc1ccccc12)N(C)C(=O)c1nc2c(F)cc(F)c(F)c2[nH]1 [Example 270] | < 0.1 µM
CC(C)C[C@@H](C(=O)N1C[C@]2(C[C@H]1C#N)C(=O)Nc1ccccc12)N(C)C(=O)c1ccc2c(Cl)ccnc2c1 [Example 271] | 0.1 to 1 µM
CC(C)C[C@@H](C(=O)N1C[C@]2(C[C@H]1C#N)C(=O)Nc1ccccc12)N(C)C(=O)c1ccc(F)c(-c2ccccc2)c1 [Example 272] | 0.1 to 1 µM
CC(C)C[C@@H](C(=O)N1C[C@]2(C[C@H]1C#N)C(=O)Nc1ccccc12)N(C)C(=O)c1nc2c(F)c(F)c(F)cc2[nH]1 [Example 273] | 0.1 to 1 µM
CC(C)C[C@@H](C(=O)N1C[C@]2(C[C@H]1C#N)C(=O)Nc1ccccc12)N(C)C(=O)c1ccc2nccc(Br)c2c1 [Example 274] | < 0.1 µM
CC(C)C[C@@H](C(=O)N1C[C@]2(C[C@H]1C#N)C(=O)Nc1ccccc12)N(C)C(=O)c1cc2cccnc2cc1F [Example 275] | < 0.1 µM
CC(C)C[C@@H](C(=O)N1C[C@]2(C[C@H]1C#N)C(=O)Nc1ccccc12)N(C)C(=O)c1ccc2c(=O)[nH]ccc2c1 [Example 276] | < 0.1 µM
CC(C)C[C@@H](C(=O)N1C[C@]2(C[C@H]1C#N)C(=O)Nc1ccccc12)N(C)C(=O)c1ccc(-c2ccccc2)cc1 [Example 277] | 0.1 to 1 µM
CC(C)C[C@@H](C(=O)N1C[C@]2(C[C@H]1C#N)C(=O)Nc1ccccc12)N(C)C(=O)c1cccc(-c2ccccc2C#N)c1 [Example 278] | < 0.1 µM
CC(C)C[C@@H](C(=O)N1C[C@]2(C[C@H]1C#N)C(=O)Nc1ccccc12)N(C)C(=O)c1cccc(-c2cccc(C#N)c2)c1 [Example 279] | 0.1 to 1 µM
CC(C)C[C@@H](C(=O)N1C[C@]2(C[C@H]1C#N)C(=O)Nc1ccccc12)N(C)C(=O)c1nc2ccccc2n1C [Example 282] | 0.1 to 1 µM
CC(C)C[C@@H](C(=O)N1C[C@]2(C[C@H]1C#N)C(=O)Nc1ccccc12)N(C)C(=O)c1cn(-c2ccc(F)cc2)nn1 [Example 283] | < 0.1 µM
CC(C)C[C@@H](C(=O)N1C[C@]2(C[C@H]1C#N)C(=O)Nc1ccccc12)N(C)C(=O)c1cn(-c2ccc(Cl)cc2)nn1 [Example 284] | < 0.1 µM
CC(C)C[C@@H](C(=O)N1C[C@]2(C[C@H]1C#N)C(=O)Nc1ccccc12)N(C)C(=O)c1ccc2cccnc2c1O [Example 285] | 0.1 to 1 µM
CC(C)C[C@@H](C(=O)N1C[C@]2(C[C@H]1C#N)C(=O)Nc1ccccc12)N(C)C(=O)c1cn(-c2cccc(Cl)c2)nn1 [Example 286] | < 0.1 µM

SMILES | IC50
CC(C)C[C@@H](C(=O)N1C[C@]2(C[C@H]1C#N)C(=O)Nc1ccccc12)N(C)C(=O)c1n[nH]c(-c2ccccc2)n1 [Example 288] | 0.1 to 1 µM
CC(C)C[C@@H](C(=O)N1C[C@]2(C[C@H]1C#N)C(=O)Nc1ccccc12)N(C)C(=O)C[C@@H](Cc1cc(F)c(F)cc1F)NC(=O)OC(C)(C)C [Example 289] | < 0.1 µM
CC(C)C[C@@H](C(=O)N1C[C@]2(C[C@H]1C#N)C(=O)Nc1ccccc12)N(C)C(=O)c1ccc2c(F)cc(F)cc2n1 [Example 290] | 0.1 to 1 µM
CC(C)C[C@@H](C(=O)N1C[C@]2(C[C@H]1C#N)C(=O)Nc1ccccc12)N(C)C(=O)C[C@H](Cc1cc(F)c(F)cc1F)NC(=O)OC(C)(C)C [Example 291] | < 0.1 µM
COc1cc(F)c2cc(C(=O)N(C)[C@@H](CC(C)C)C(=O)N3C[C@]4(C[C@H]3C#N)C(=O)Nc3ccccc34)[nH]c2c1F [Example 292] | < 0.1 µM
CC(C)C[C@@H](C(=O)N1C[C@]2(C[C@H]1C#N)C(=O)Nc1ccccc12)N(C)C(=O)c1cccc2ccncc12 [Example 293] | < 0.1 µM
CC(C)C[C@@H](C(=O)N1C[C@]2(C[C@H]1C#N)C(=O)Nc1ccccc12)N(C)C(=O)c1ccnc2ccccc12 [Example 294] | < 0.1 µM
CC(C)C[C@@H](C(=O)N1C[C@]2(C[C@H]1C#N)C(=O)Nc1ccccc12)N(C)C(=O)c1cncc2ccccc12 [Example 295] | < 0.1 µM
CC(C)C[C@@H](C(=O)N1C[C@]2(C[C@H]1C#N)C(=O)Nc1ccccc12)N(C)C(=O)c1cccc2cccnc12 [Example 296] | 0.1 to 1 µM
CC(C)C[C@@H](C(=O)N1C[C@]2(C[C@H]1C#N)C(=O)Nc1ccccc12)N(C)C(=O)c1ccc2nccnc2c1 [Example 297] | 0.1 to 1 µM
CC(C)C[C@@H](C(=O)N1C[C@]2(C[C@H]1C#N)C(=O)Nc1ccccc12)N(C)C(=O)c1cnc2ccccc2n1 [Example 298] | 0.1 to 1 µM
CC(C)C[C@@H](C(=O)N1C[C@]2(C[C@H]1C#N)C(=O)Nc1ccccc12)N(C)C(=O)c1c(F)ccc2ccncc12 [Example 299] | < 0.1 µM
CC(C)C[C@@H](C(=O)N1C[C@]2(C[C@H]1C#N)C(=O)Nc1ccccc12)N(C)C(=O)c1cnc2cnccc2c1 [Example 301] | < 0.1 µM
CC(C)C[C@@H](C(=O)N1C[C@]2(C[C@H]1C#N)C(=O)Nc1ccccc12)N(C)C(=O)c1cnc2cccnc2c1 [Example 302] | 0.1 to 1 µM
CC(C)C[C@@H](C(=O)N1C[C@]2(C[C@H]1C#N)C(=O)Nc1ccccc12)N(C)C(=O)c1ccc2ncccc2n1 [Example 303] | < 0.1 µM
CC(C)C[C@@H](C(=O)N1C[C@]2(C[C@H]1C#N)C(=O)Nc1ccccc12)N(C)C(=O)c1cccc2ncc(F)cc12 [Example 304] | < 0.1 µM
CC(C)C[C@@H](C(=O)N1C[C@]2(C[C@H]1C#N)C(=O)Nc1ccccc12)N(C)C(=O)c1ccnc2ccc(F)cc12 [Example 305] | < 0.1 µM
CC(C)C[C@@H](C(=O)N1C[C@]2(C[C@H]1C#N)C(=O)Nc1ccccc12)N(C)C(=O)c1ccnc2cccc(F)c12 [Example 306] | < 0.1 µM
CC(C)C[C@@H](C(=O)N1C[C@]2(C[C@H]1C#N)C(=O)Nc1ccccc12)N(C)C(=O)c1cc(F)c2nn(C)cc2c1 [Example 309] | < 0.1 µM
CC(C)C[C@@H](C(=O)N1C[C@]2(C[C@H]1C#N)C(=O)Nc1ccccc12)N(C)C(=O)c1cc(OC2CC2)c2nc(Cl)ccc2c1 [Example 310] | < 0.1 µM

SMILES | IC50
CC(C)C[C@@H](C(=O)N1C[C@]2(C[C@H]1C#N)C(=O)Nc1ccccc12)N(C)C(=O)c1cc(F)c2nn(C3CC3)cc2c1 [Example 311] | 0.1 to 1 µM
CC(C)C[C@@H](C(=O)N1C[C@]2(C[C@H]1C#N)C(=O)Nc1ccccc12)N(C)C(=O)c1cc(OC2CC2)c2ncccc2c1 [Example 312] | < 0.1 µM
CC(C)C[C@@H](C(=O)N1C[C@]2(C[C@H]1C#N)C(=O)Nc1ccccc12)N(C)C(=O)c1cc(OC2CC2)n2nc(C3CC3)c(C(=O)C(F)(F)F)c2c1 [Example 313] | 0.1 to 1 µM
CC(C)C[C@@H](C(=O)N1C[C@]2(C[C@H]1C#N)C(=O)Nc1ccccc12)N(C)C(=O)c1cc(F)c2nc(C3CC3)c(C(=O)C(F)(F)F)n2c1 [Example 314] | 0.1 to 1 µM
CC(C)C[C@@H](C(=O)N1C[C@]2(C[C@H]1C#N)C(=O)Nc1ccccc12)N(C)C(=O)c1cc(OC2CC2)n2nc(C3CC3)cc2c1 [Example 315] | < 0.1 µM
CC(C)C[C@@H](C(=O)N1C[C@]2(C[C@H]1C#N)C(=O)Nc1ccccc12)N(C)C(=O)c1cc(Cl)c2nn(C3CC3)cc2c1 [Example 316] | < 0.1 µM
CC(C)C[C@@H](C(=O)N1C[C@]2(C[C@H]1C#N)C(=O)Nc1ccccc12)N(C)C(=O)c1cc(OC2CC2)c2nc(C3CC3)sc2c1 [Example 317] | < 0.1 µM
CC(C)C[C@@H](C(=O)N1C[C@]2(C[C@H]1C#N)C(=O)Nc1ccccc12)N(C)C(=O)c1cc(F)c2nc(C3CC3)cn2c1 [Example 318] | < 0.1 µM
COc1cc(C(=O)N(C)[C@@H](CC(C)C)C(=O)N2C[C@]3(C[C@H]2C#N)C(=O)Nc2ccccc23)cc2cn(C3(C)CC3)nc12 [Example 319] | < 0.1 µM
COc1cc(C(=O)N(C)[C@@H](CC(C)C)C(=O)N2C[C@]3(C[C@H]2C#N)C(=O)Nc2ccccc23)cc2cn(C3CCC3)nc12 [Example 320] | < 0.1 µM
Cc1ccc2cc(C(=O)N(C)[C@@H](CC(C)C)C(=O)N3C[C@]4(C[C@H]3C#N)C(=O)Nc3ccccc34)cc(OC3CC3)c2n1 [Example 321] | < 0.1 µM
CC(C)C[C@@H](C(=O)N1C[C@]2(C[C@H]1C#N)C(=O)Nc1ccccc12)N(C)C(=O)c1cc(OC(F)(F)F)c2ncccc2c1 [Example 322] | < 0.1 µM
Cc1cc2cc(C(=O)N(C)[C@@H](CC(C)C)C(=O)N3C[C@]4(C[C@H]3C#N)C(=O)Nc3ccccc34)cc(OC3CC3)c2nc1C [Example 323] | < 0.1 µM
CC(C)C[C@@H](C(=O)N1C[C@]2(C[C@H]1C#N)C(=O)Nc1ccccc12)N(C)C(=O)c1cc(OC2CC2)c2ncc(C3CC3)cc2c1 [Example 324] | 0.1 to 1 µM
CC(C)C[C@@H](C(=O)N1C[C@]2(C[C@H]1C#N)C(=O)Nc1ccccc12)N(C)C(=O)c1cc2cccc(F)c2[nH]1 [Example 325] | < 0.1 µM
CC(C)C[C@@H](C(=O)N1C[C@]2(C[C@H]1C#N)C(=O)Nc1ccccc12)N(C)C(=O)c1cc2cc(C(F)(F)F)ccc2[nH]1 [Example 326] | < 0.1 µM
CC(C)C[C@@H](C(=O)N1C[C@]2(C[C@H]1C#N)C(=O)Nc1ccccc12)N(C)C(=O)c1cc2cc(C#N)ccc2[nH]1 [Example 327] | < 0.1 µM
CC(C)C[C@@H](C(=O)N1C[C@]2(C[C@H]1C#N)C(=O)Nc1ccccc12)N(C)C(=O)c1cc2c(Cl)c(Cl)ccc2[nH]1 [Example 328] | < 0.1 µM

Source: patent publication US12540141B2, “Spiropyrrolidine derived antiviral agents” (priority 2020, dated 2026)
